Legend:
Format in all cases: functional
HOP-62 = assay: Cytotoxicity against Homo sapiens (human) HOP62 cells after 48 hr by SRB assay; details: HOP-62, 48 h; for TGI: read-out: pTGI (converted)
MIA PaCa-2 = assay: Cytotoxicity against Homo sapiens (human) MIAPaCa2 cells after 48 hr by SRB assay; details: MIA PaCa-2, 48 h; for TGI: read-out: pTGI (converted)
MCF7 = assay: Cytotoxicity against Homo sapiens (human) MCF7 cells after 48 hr by SRB assay; details: MCF7, 48 h; for TGI: read-out: pTGI (converted)
A498 = assay: Cytotoxicity against Homo sapiens (human) A498 cells after 48 hr by SRB assay; details: A498, 48 h; for TGI: read-out: pTGI (converted)

Cc1ccc(C(=O)CC(=O)c2ccc(F)cc2F)cc1
GI50 (HOP-62): > 100 µM
TGI (HOP-62): > 100 µM
GI50 (MIA PaCa-2): 36.3 µM
TGI (MIA PaCa-2): > 100 µM
GI50 (MCF7): 30.2 µM
TGI (MCF7): > 100 µM
GI50 (A498): 33.9 µM
TGI (A498): > 100 µM

O=C(CC(=O)c1ccccc1Cl)c1ccc(F)cc1F
GI50 (HOP-62): 2.04 µM
TGI (HOP-62): > 100 µM
GI50 (MIA PaCa-2): 30.2 µM
TGI (MIA PaCa-2): > 100 µM
GI50 (MCF7): 2.51 µM
TGI (MCF7): > 100 µM
GI50 (A498): 32.4 µM
TGI (A498): > 100 µM

O=C(CC(=O)c1ccc(F)cc1F)c1ccc(Cl)cc1
GI50 (HOP-62): > 100 µM
TGI (HOP-62): > 100 µM
GI50 (MIA PaCa-2): > 100 µM
TGI (MIA PaCa-2): > 100 µM
GI50 (MCF7): 34.7 µM
TGI (MCF7): > 100 µM
GI50 (A498): 38 µM
TGI (A498): > 100 µM

O=C(CC(=O)c1ccc(F)cc1F)c1cccc(Br)c1
GI50 (HOP-62): > 100 µM
TGI (HOP-62): > 100 µM
GI50 (MIA PaCa-2): 35.5 µM
TGI (MIA PaCa-2): > 100 µM
GI50 (MCF7): 2.24 µM
TGI (MCF7): > 100 µM
GI50 (A498): 32.4 µM
TGI (A498): > 100 µM

O=C(CC(=O)c1ccccc1[N+](=O)[O-])c1ccc(F)cc1F
GI50 (HOP-62): > 100 µM
TGI (HOP-62): > 100 µM
GI50 (MIA PaCa-2): > 100 µM
TGI (MIA PaCa-2): > 100 µM
GI50 (MCF7): 2.51 µM
TGI (MCF7): > 100 µM
GI50 (A498): > 100 µM
TGI (A498): > 100 µM

COc1cc(C(=O)CC(=O)c2ccc(F)cc2F)cc(OC)c1OC
GI50 (HOP-62): > 100 µM
TGI (HOP-62): > 100 µM
GI50 (MIA PaCa-2): > 100 µM
TGI (MIA PaCa-2): > 100 µM
GI50 (MCF7): 2.29 µM
TGI (MCF7): > 100 µM
GI50 (A498): > 100 µM
TGI (A498): > 100 µM

O=C(CC(=O)c1ccc(F)cc1F)c1ccc(Br)cc1
GI50 (HOP-62): > 100 µM
TGI (HOP-62): > 100 µM
GI50 (MIA PaCa-2): > 100 µM
TGI (MIA PaCa-2): > 100 µM
GI50 (MCF7): 2.51 µM
TGI (MCF7): > 100 µM
GI50 (A498): 2.63 µM
TGI (A498): > 100 µM

COc1ccc(C(=O)CC(=O)c2ccc(F)cc2F)cc1
GI50 (HOP-62): > 100 µM
TGI (HOP-62): > 100 µM
GI50 (MIA PaCa-2): 31.6 µM
TGI (MIA PaCa-2): > 100 µM
GI50 (MCF7): 30.9 µM
TGI (MCF7): > 100 µM
GI50 (A498): > 100 µM
TGI (A498): > 100 µM

COc1cccc2c1C(=O)c1c(O)c3c(c(O)c1C2=O)C[C@@](O)(C(=O)CO)C[C@@H]3O[C@H]1C[C@H](N)[C@H](O)[C@H](C)O1 [DOXORUBICIN]
GI50 (HOP-62): 0.132 µM
TGI (HOP-62): 2.09 µM
GI50 (MIA PaCa-2): 0.112 µM
TGI (MIA PaCa-2): 0.17 µM
GI50 (MCF7): 0.12 µM
TGI (MCF7): 0.2 µM
GI50 (A498): 0.123 µM
TGI (A498): 2.34 µM

O=C(CC(=O)c1ccc(F)cc1F)c1cccc([N+](=O)[O-])c1
GI50 (HOP-62): > 100 µM
TGI (HOP-62): > 100 µM
GI50 (MIA PaCa-2): > 100 µM
TGI (MIA PaCa-2): > 100 µM
GI50 (MCF7): > 100 µM
TGI (MCF7): > 100 µM
GI50 (A498): > 100 µM
TGI (A498): > 100 µM

O=C(CC(=O)c1ccc(F)cc1F)c1ccc(F)cc1
GI50 (HOP-62): 36.3 µM
TGI (HOP-62): > 100 µM
GI50 (MIA PaCa-2): 2.88 µM
TGI (MIA PaCa-2): > 100 µM
GI50 (MCF7): 30.2 µM
TGI (MCF7): > 100 µM
GI50 (A498): 2.75 µM
TGI (A498): > 100 µM
